From patent US20090275727A1, “Peptide turn mimetics” (MIMETICA PTY LIMITED, priority 1998, published 2009)
Where two headings read alike, the source gives them in different places. Where a SMILES comes first, the peptide text is derived from it.

Experiments:
[1] = Solubility in water noted when preparing the NMR sample; format: physicochemical; settings: NMR run in 1:9 d3-TFE:H2O instead
Protocol: To a solution of Ac-GY(tBu)LLG-OMe 229 (58 mg, 0.09 mmol) in dichloromethane (2 mL) was added TFA (2 mL) and the solution stirred at rt for 1 h. The volatiles were removed under reduced pressure, and the residue dissolved in acetonitrile (1 mL) and water (1 mL). This solution was purified by preparative HPLC, to give the purified peptide 230 (12.6 mg) as a white solid. [M+H]^+=578.8; Analytical HPLC (0-40% B over 40 min, mL/min, 214 nm): tR=25.51 min; ^1H NMR, 600 MHz, 1:9 d3-TFE:H2O. Consistent with structure.

[2] = Variable temperature CD, thermal denaturation of secondary structure; format: physicochemical
Protocol: CD experiments were performed on a Jasco Model J-810 spectropolarimeter, which was routinely calibrated with (1S)-(+)-10-camphorsulfonic acid at a concentration of 0.06% (w/v). Experiments were performed at 25° C. using a 0.1 cm cell, a scan speed of 10 nm/min from 260 to 180 nm, with a resolution of 1 nm and a response time of 0.25 s. The spectra were averaged over 5 scans, baseline subtracted from the corresponding blank conditions, and smoothed using the Savitsky-Golay smoothing algorithm (Savitsky, A. and Golay, M. J. E., 1964, Anal. Chem, 36, 1627-1639) to reduce noise. The samples were dissolved in 10 mM phosphate buffer, measured as pH 7.4, and when required the appropriate volume of TFE was added to adjust to 30% TFE. The concentration of the samples of peptides incorporating Helix Mimetic A (galanin 1-16 analogs) were determined using the Beer-Lambert Law by measuring the absorbance of the samples at 280 nm and using a molar extinction co-efficient of ε280=6620 M^−1cm^−1 (ε280 of Galanin 1-30, contains same number of Trp and Tyr as Galanin 1-16). The concentration of the samples of peptides incorporating Helix Mimetic B (Temporin A analogs) samples and the pentapeptide 13-membered ring Helix Mimetic A and B samples were determined by quantitative RP-HPLC against a standard of known concentration. All samples were between 40-200 μM, and CD spectra were recorded at a range of concentrations to check that sample aggregation was not occurring. Raw CD data was recorded in raw ellipticity units and converted to mean ellipticity per mole using the equation [θ]=θ/(10×c×l), where c is the sample concentration (M) and l is the cell path length (cm). Data was not converted to mean peptide molar ellipticity per residue as for compounds containing the covalent ethyl-bridge hydrogen bond replacement it is unclear how many “natural” peptide units to count in these calculations. Variable temperature CD experiments were carried using a CDF-426/L Peltier type CD/Fluorescence simultaneous measurement attachment, and samples were equilibrated for 10 min once the desired temperature was reached.
CD spectroscopy (as outlined in Example K) was conducted on the Galanin(1-16) reference linear peptide 231 and the Galanin(1-16) helix mimetics 232a and 232b in 10 mM phosphate buffer (pH 7.4) and in 10 mM phosphate buffer with 30% TFE added (see FIG. 8). […] The CD spectra of […] in both buffer and buffer with TFE. […] Further CD experiments examined the thermal denaturation secondary structure stability of Gal(1-16) 231 and (S)-Gal(1-16) helix mimetic 232b were investigated by thermal denaturation experiments (FIG. 9). […]

Galanin GAL1 = target: T1, Galanin GAL1 (Homo sapiens, UniProt P47211); assay: Galanin radioligand binding competitive assay, GAL1 (125I galanin porcine, recombinant HEK-293 cells); settings: 0.012 nM 125I Galanin (porcine), human recombinant HEK-293; for inhibition at 0.01 µM: 10 nM peptide, read-out: GAL1 % inhib at 10 nM; for inhibition at 0.1 µM: 100 nM peptide, read-out: GAL1 % inhib at 100 nM
T1 construct: expressed in transfected cells; host or cells: HEK-293
T1 sequence (P47211 1-349): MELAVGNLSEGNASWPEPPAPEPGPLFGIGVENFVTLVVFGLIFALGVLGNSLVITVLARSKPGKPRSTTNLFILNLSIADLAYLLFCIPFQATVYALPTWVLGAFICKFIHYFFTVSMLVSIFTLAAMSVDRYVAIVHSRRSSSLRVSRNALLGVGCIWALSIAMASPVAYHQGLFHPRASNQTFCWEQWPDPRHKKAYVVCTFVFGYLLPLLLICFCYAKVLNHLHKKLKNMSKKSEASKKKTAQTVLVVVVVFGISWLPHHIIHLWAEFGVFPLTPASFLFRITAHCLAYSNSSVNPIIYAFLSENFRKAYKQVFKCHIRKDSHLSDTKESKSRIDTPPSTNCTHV
Protocol: (§1) Galanin(1-16) Linear Reference Peptide 231, Galanin(1-16) Analog Incorporating (R)-Helix Pentapeptide Mimetic A 232a and Galanin(1-16) Analog Incorporating (S)-Helix Pentapeptide Mimetic A 232b were tested for binding affinity to the Galanin-1 and Galanin-2 receptors using a radioligand binding competitive assay (Heuillet E, Bouaiche Z, Menager J, Dugay P, Munoz N, Dubois H, Amiranoff B, Crespo A, Lavayre J, Blanchard J C, Doble A; Eur J. Pharmacol., 1994, 269, 139-147. Bloomquist B T, Beauchamp M R, Zhelnin L, Brown S E, Biochem Biophys Res Comm., 1998, 243, 474-479.) Human recombinant HEK-293 cells were used as the source of Galanin GAL1, and samples tested against competitive binding with 0.012 nM ^125I Galanin (porcine). DMSO was used as the vehicle, and the incubation buffer consisted of 10 mM HEPES-NaOH, pH 7.4, 1 mM EDTA, 0.5% BSA, 0.01% Bacitracin. Human recombinant CHO-K1 cells were used as the source of Galanin GAL2, and samples tested against competitive binding with 0.02 nM ^125I Galanin (human).

[3] = Rat plasma stability of galanin peptides (LC/MS); format: in vitro ADME; settings: for remaining at 4 h, 500 ng/mL / remaining at 2 min, 500 ng/mL: male, Sprague Dawley
Protocol: Rat plasma was obtained freshly from male Sprague Dawley rats. The stock solutions for the samples Galanin(1-16) Linear Reference Peptide 231, Galanin(1-16) Analog Incorporating (R)-Helix Pentapeptide Mimetic A 232a and Galanin(1-16) Analog Incorporating (S)-Helix Pentapeptide Mimetic A 232b were prepared in 1:1 v:v acetonitrile/water at a concentration of 1 mg/mL. This stock solution was further diluted using 1:1 v:v acetonitrile/water to give a spiking solution with a nominal concentration of 50 μg/mL. For each compound, an aliquot (1485 μL) of rat plasma (maintained at 37° C.) was spiked with 15 μL of the spiking stock to give a nominal plasma concentration of 500 ng/mL. […] Samples were quenched by snap freezing in dry-ice. The concentration of the parent compound (Gal 231, Gal R 232a, Gal S 232b) was determined by LC/MS on a Micromass Quattro Premier triple-quadrupole instrument. The percentage of the parent compound remaining at each time point was calculated relative to the concentrations observed in the spiking control samples.

Galanin GAL2 = target: T2, Galanin GAL2 (Homo sapiens, UniProt O43603); assay: Galanin radioligand binding competitive assay, GAL2 (125I galanin human, recombinant CHO-K1 cells); settings: 0.02 nM 125I Galanin (human); for inhibition at 0.1 µM: 100 nM peptide, read-out: GAL2 % inhib at 100 nM; for inhibition at 1 µM: 1 1000 nM peptide (so in the source), read-out: GAL2 % inhib at 1 1000 nM
T2 construct: expressed in transfected cells; host or cells: CHO-K1
T2 sequence (O43603 1-387): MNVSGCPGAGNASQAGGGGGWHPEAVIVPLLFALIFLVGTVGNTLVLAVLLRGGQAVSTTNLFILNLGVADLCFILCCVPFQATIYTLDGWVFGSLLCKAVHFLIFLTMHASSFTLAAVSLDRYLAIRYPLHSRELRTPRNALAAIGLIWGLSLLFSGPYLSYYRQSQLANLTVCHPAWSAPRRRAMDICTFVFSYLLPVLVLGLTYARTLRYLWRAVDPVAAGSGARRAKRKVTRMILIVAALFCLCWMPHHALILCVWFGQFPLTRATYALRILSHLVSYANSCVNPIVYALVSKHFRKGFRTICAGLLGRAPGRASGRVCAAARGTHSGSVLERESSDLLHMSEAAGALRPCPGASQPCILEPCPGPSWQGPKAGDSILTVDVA
Protocol: as §1

[4] = pH 7.4, 30% TFE in phosphate buffer, 5-75° C.

inhibition at 0.01 µM (Galanin GAL1)	inhibition at 0.1 µM (Galanin GAL1)	inhibition at 0.1 µM (Galanin GAL2)	inhibition at 1 µM (Galanin GAL2)	Time after spiking until concentration is below the limit of quantitation [3]	remaining at 2 min, 500 ng/mL ([3]; rat, plasma)	Percent remaining at end of 240 min incubation compared with 10 (linear Gal(1-16)) ([3]; rat, plasma, 4 h)	SMILES	Thermal stability of secondary structure (variable temperature CD) [2, 4]	Thermal stability of secondary structure (variable temperature CD) ([2]; pH 7.4)	other results
8%	37%	6%	36%	≤ 30 min	50%	significantly higher	CC(C)C[C@@H]1NC(=O)[C@H](Cc2ccc(O)cc2)N[C@@H](CNC(=O)[C@H](C)NC(=O)[C@H](CO)NC(=O)[C@H](CC(N)=O)NC(=O)[C@H](CC(C)C)NC(=O)[C@@H](NC(=O)[C@H](Cc2c[nH]c3ccccc23)NC(=O)CN)[C@@H](C)O)CCN(CC(=O)N2CCC[C@H]2C(=O)N[C@@H](CC2C=NC=N2)C(=O)N[C@@H](C)C(=O)N[C@H](C(N)=O)C(C)C)C(=O)[C@H](CC(C)C)NC1=O (stereo partly drawn) [Gal R 232a]	–	–	% Compound remaining at 4° C. ([3]; rat, plasma, 4 h): 31.3%
2%	18%	2%	6%	≤ 30 min	44.8%	significantly higher	CC(C)C[C@@H]1NC(=O)[C@H](Cc2ccc(O)cc2)N[C@H](CNC(=O)[C@H](C)NC(=O)[C@H](CO)NC(=O)[C@H](CC(N)=O)NC(=O)[C@H](CC(C)C)NC(=O)[C@@H](NC(=O)[C@H](Cc2c[nH]c3ccccc23)NC(=O)CN)[C@@H](C)O)CCN(CC(=O)N2CCC[C@H]2C(=O)N[C@@H](CC2C=NC=N2)C(=O)N[C@@H](C)C(=O)N[C@H](C(N)=O)C(C)C)C(=O)[C@H](CC(C)C)NC1=O (stereo partly drawn) [Gal S 232b]	–	excellent structural stability at elevated temperatures	remaining at 4 h, 500 ng/mL ([3]; rat, plasma): 31.3%

The next lines start with the compound.

SMILES	inhibition at 0.01 µM (Galanin GAL1)	inhibition at 0.1 µM (Galanin GAL1)	inhibition at 0.1 µM (Galanin GAL2)	inhibition at 1 µM (Galanin GAL2)	Time after spiking until concentration is below the limit of quantitation [3]	remaining at 2 min, 500 ng/mL ([3]; rat, plasma)	Percent remaining at end of 240 min incubation compared with 10 (linear Gal(1-16)) ([3]; rat, plasma, 4 h)	Thermal stability of secondary structure (variable temperature CD) [2, 4]	Thermal stability of secondary structure (variable temperature CD) ([2]; pH 7.4)	other results
COC(=O)CNC(=O)[C@H](CC(C)C)NC(=O)[C@H](CC(C)C)NC(=O)[C@H](Cc1ccc(O)cc1)NC(=O)CNC(C)=O [Compound 230, Ac-GYLLG-OMe] (HELM PEPTIDE1{[ac].G.Y.L.L.G.[CO[*:1]]}$$$$V2.0)	–	–	–	–	–	–	–	–	–	Solubility in H2O [1]: not soluble in H2O
CC[C@H](C)[C@H](NC(=O)[C@H](CC(C)C)NC(=O)C1CCCN1C(=O)[C@H](CC(C)C)NC(=O)[C@@H](N)Cc1ccccc1)C(=O)NCC(=O)N[C@@H](CCCNC(=N)N)C(=O)NCC(=O)N[C@@H](CC(C)C)C(=O)N[C@@H](CO)C(=O)NCC(=O)N[C@@H](CC(C)C)C(=O)N[C@@H](CC(C)C)C(N)=O (stereo partly drawn) [Compound 234, FLPLIGRGLSGLL-NH2, reference compound]	–	–	–	–	–	–	–	increase in 222 nm absorbance as temperature increases, indicative of the helix unwinding	–	–
CC[C@H](C)[C@H](NC(=O)[C@H](CC(C)C)NC(=O)C1CCCN1C(=O)[C@H](CC(C)C)NC(=O)[C@@H](N)Cc1ccccc1)C(=O)NCC(=O)N[C@@H](CCCNC(=N)N)C(=O)NC[C@@H]1CCN([C@@H](CC(C)C)C(=O)N[C@@H](CC(C)C)C(N)=O)C(=O)CNC(=O)[C@H](CO)NC(=O)[C@H](CC(C)C)N1 (stereo partly drawn) [Compound 235b]	–	–	–	–	–	–	–	–	remarkable thermal stability	–
CC(C)C[C@H](NC(=O)[C@H](CC(C)C)NC(=O)[C@H](Cc1ccc(O)cc1)NC(=O)CNC(=O)[C@H](C)NC(=O)[C@H](CO)NC(=O)[C@H](CC(N)=O)NC(=O)[C@H](CC(C)C)NC(=O)[C@@H](NC(=O)[C@H](Cc1c[nH]c2ccccc12)NC(=O)CN)[C@@H](C)O)C(=O)NCC(=O)N1CCC[C@H]1C(=O)N[C@@H](CC1C=NC=N1)C(=O)N[C@@H](C)C(=O)N[C@H](C(N)=O)C(C)C (stereo partly drawn) [Gal (1-16) 231, GWTLNSAGYLLGPHAV-NH2, reference compound]	85%	96%	92%	101%	–	–	–	decreased peptide secondary structure with increased temperature	–	remaining at 4 h, 500 ng/mL ([3]; rat plasma, 4° C., 240 min, read-out: % Compound remaining at 4° C.): 6.2%; remaining at 2 min, 500 ng/mL ([3]; rat plasma, 37° C., 2 min, nominal 500 ng/mL, read-out: % Compound remaining at 37° C.): 30.2%
